Data published in patent US20200031825A1, “HETEROAROMATIC-FUSED IMIDAZOLYL AMIDES, COMPOSITIONS AND USES THEREOF AS STING AGONISTS” (Trillium Therapeutics Inc., priority 2018, published 2020).
Where a name gives a salt, the structure may show the parent alone. Read-outs that look alike come from different tables or passages of the source.

Legend:
Format in all cases: cell-based
hSTING-AQ = target: T1, hSTING-AQ (Homo sapiens, UniProt Q86WV6, G230A/R293Q); assay: Cellular Functional Assay I: ISRE-SEAP reporter, hSTING-AQ allele
T1 construct: expressed in transfected cells

hSTING-wt = hSTING-wt (Homo sapiens, UniProt Q86WV6); assay: Cellular Functional Assay I: ISRE-SEAP reporter in HEK-293T-Dual Null cells transfected with hSTING-wt; conditions: HEK-293T-Dual Null, hSTING-wt
hSTING-Q = target: T2, hSTING-Q (Homo sapiens, UniProt Q86WV6, R293Q); assay: Cellular Functional Assay I: ISRE-SEAP reporter, hSTING-Q allele
T2 construct: expressed in transfected cells

mSTING-wt = target: T3, mSTING-wt (Mus musculus, UniProt Q3TBT3); assay: Cellular Functional Assay I: ISRE-SEAP reporter in HEK-293T-Dual Null cells transfected with mouse STING
T3 sequence (Q3TBT3 1-378): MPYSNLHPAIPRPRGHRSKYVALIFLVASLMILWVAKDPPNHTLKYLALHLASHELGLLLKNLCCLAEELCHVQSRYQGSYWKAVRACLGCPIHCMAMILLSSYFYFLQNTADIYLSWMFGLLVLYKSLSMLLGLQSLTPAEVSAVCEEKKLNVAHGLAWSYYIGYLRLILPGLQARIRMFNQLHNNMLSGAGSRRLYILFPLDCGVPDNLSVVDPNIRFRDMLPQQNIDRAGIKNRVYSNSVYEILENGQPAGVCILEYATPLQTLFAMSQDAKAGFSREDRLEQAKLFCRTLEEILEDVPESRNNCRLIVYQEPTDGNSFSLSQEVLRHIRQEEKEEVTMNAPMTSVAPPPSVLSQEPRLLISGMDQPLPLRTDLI

hSTING-H232 = hSTING-H232 (Homo sapiens, UniProt Q86WV6); assay: Cellular Functional Assay I: ISRE-SEAP reporter in HEK-293T-Dual Null cells transfected with hSTING-H232; conditions: HEK-293T-Dual Null, hSTING-H232
hSTING-HAQ = hSTING-HAQ (Homo sapiens, UniProt Q86WV6, G230A/H232R/R293Q/R71H); assay: Cellular Functional Assay I: ISRE-SEAP reporter in HEK-293T-Dual Null cells transfected with hSTING-HAQ; conditions: HEK-293T-Dual Null, hSTING-HAQ
[1] = SEAP reporter, HEK-293T-Dual Null, mSTING-wt, read-out: EC50 mSTING-wt

Sequence of hSTING-HAQ (Q86WV6 whole entry R71H/G230A/H232R/R293Q): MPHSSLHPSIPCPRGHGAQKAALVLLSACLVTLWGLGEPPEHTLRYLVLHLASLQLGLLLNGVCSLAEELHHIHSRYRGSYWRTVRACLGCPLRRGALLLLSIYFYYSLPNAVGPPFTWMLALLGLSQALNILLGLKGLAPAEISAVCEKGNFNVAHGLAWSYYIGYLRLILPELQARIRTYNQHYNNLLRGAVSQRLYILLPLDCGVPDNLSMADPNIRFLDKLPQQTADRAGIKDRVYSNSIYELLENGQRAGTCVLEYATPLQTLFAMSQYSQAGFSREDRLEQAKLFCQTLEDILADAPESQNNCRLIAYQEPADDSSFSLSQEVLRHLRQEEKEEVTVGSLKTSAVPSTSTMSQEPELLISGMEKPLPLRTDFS
T1 sequence (Q86WV6 whole entry G230A/H232R/R293Q): as the sequence (Q86WV6 whole entry R71H/G230A/H232R/R293Q) above, with H71R counted along it
Sequence of hSTING-wt (Q86WV6 whole entry H232R): as the sequence (Q86WV6 whole entry R71H/G230A/H232R/R293Q) above, with H71R, A230G, Q293R counted along it
Sequence of hSTING-H232 (Q86WV6 whole entry): as the sequence (Q86WV6 whole entry R71H/G230A/H232R/R293Q) above, with H71R, A230G, R232H, Q293R counted along it
T2 sequence (Q86WV6 whole entry R293Q): as the sequence (Q86WV6 whole entry R71H/G230A/H232R/R293Q) above, with H71R, A230G, R232H counted along it

EC50 (hSTING-AQ) | EC50 (hSTING-wt) | EC50 (hSTING-Q) | EC50 (mSTING-wt; [1]) | EC50 (hSTING-H232) | EC50 (hSTING-HAQ) | Structure (SMILES) | EC50 (mSTING-wt)
1 to 500 nM | 1 to 500 nM | 1 to 500 nM | > 500 nM | 1 to 500 nM | > 500 nM | CCn1nc(C)cc1C(=O)Nc1nc2cc(C(N)=O)cc(C)c2n1C/C=C/Cn1c(NC(=O)c2cnc(C)s2)nc2cc(C(N)=O)cnc21 [Compound C, N-[6-carbamoyl-3-[(E)-4-[5-carbamoyl-2-[(2-ethyl-5-methyl-pyrazole-3-carbonyl)amino]-7-methyl-benzimidazol-1-yl]but-2-enyl]imidazo[4,5-b]pyridin-2-yl]-2-methyl-thiazole-5-carboxamide Hydrochloride] | 
> 500 nM | > 500 nM | > 500 nM | > 500 nM | > 500 nM | > 500 nM | CCn1nc(C)cc1C(=O)Nc1nc2cc(C(N)=O)cnc2n1CCCCNC(=O)OC(C)(C)C [Compound E, tert-butyl N-[4-[6-carbamoyl-2-[(2-ethyl-5-methyl-pyrazole-3-carbonyl)amino]imidazo[4,5-b]pyridin-3-yl]butyl]carbamate] | 
1 to 500 nM | 1 to 500 nM | 1 to 500 nM | 1 to 500 nM | 1 to 500 nM | 1 to 500 nM | CCn1nc(C)cc1C(=O)Nc1nc2cc(C(N)=O)cnc2n1C/C=C/Cn1c(NC(=O)c2cc(C)nn2CC)nc2cc(C(N)=O)cc(OCCCN3CCCOCC3)c21 [Compound Z, 3-[(E)-4-[5-carbamoyl-2-[(2-ethyl-5-methyl-pyrazole-3-carbonyl)amino]-7-[3-(1,4-oxazepan-4-yl)propoxy]benzimidazol-1-yl]but-2-enyl]-2-[(2-ethyl-5-methyl-pyrazole-3-carbonyl)amino]imidazo[4,5-b]pyridine-6-carboxamide] | 
> 500 nM | > 500 nM | > 500 nM | > 500 nM | > 500 nM | > 500 nM | CCn1nc(C)cc1C(=O)Nc1nc2cc(C(N)=O)cnc2n1C/C=C/CNC(=O)OCc1ccccc1 [Compound F, benzyl N-[(E)-4-[6-carbamoyl-2-[(2-ethyl-5-methyl-pyrazole-3-carbonyl)amino]imidazo[4,5-b]pyridin-3-yl]but-2-enyl]carbamate] | 
> 500 nM | 1 to 500 nM | 1 to 500 nM | 1 to 500 nM | 1 to 500 nM | > 500 nM | CCn1nc(C)cc1C(=O)Nc1nc2cc(C(N)=O)cnc2n1C/C=C/Cn1c(NC(=O)c2cc(C)nn2CC)nc2cc(C(N)=O)cnc21 [Compound L, 3-[(E)-4-[6-carbamoyl-2-[(2-ethyl-5-methyl-pyrazole-3-carbonyl)amino]imidazo[4,5-b]pyridin-3-yl]but-2-enyl]-2-[(2-ethyl-5-methyl-pyrazole-3-carbonyl)amino]imidazo[4,5-b]pyridine-6-carboxamide] | 
1 to 500 nM | 1 to 500 nM | 1 to 500 nM | 1 to 500 nM | 1 to 500 nM | 1 to 500 nM | CCn1nc(C)cc1C(=O)Nc1nc2cc(C(N)=O)cnc2n1C/C=C/Cn1c(NC(=O)c2cc(C)nn2CC)nc2cc(C(N)=O)cc(OCCCNCCOC(F)F)c21 [Compound U, 3-[(E)-4-[5-carbamoyl-7-[3-[2-(difluoromethoxy)ethylamino]propoxy]-2-[(2-ethyl-5-methyl-pyrazole-3-carbonyl)amino]benzimidazol-1-yl]but-2-enyl]-2-[(2-ethyl-5-methyl-pyrazole-3-carbonyl)amino]imidazo[4,5-b]pyridine-6-carboxamide] | 
> 500 nM | > 500 nM | > 500 nM | > 500 nM | > 500 nM | > 500 nM | CCn1nc(C)cc1C(=O)Nc1nc2cc(C(N)=O)cnc2n1C/C=C/CNC(=O)OC(C)(C)C [Compound D, tert-butyl N-[(E)-4-[6-carbamoyl-2-[(2-ethyl-5-methyl-pyrazole-3-carbonyl)amino]imidazo[4,5-b]pyridin-3-yl]but-2-enyl]carbamate] | 
1 to 500 nM | 1 to 500 nM | 1 to 500 nM | 1 to 500 nM | 1 to 500 nM | 1 to 500 nM | CCn1nc(C)cc1C(=O)Nc1nc2cc(C(N)=O)cnc2n1C/C=C/Cn1c(NC(=O)c2cc(C)nn2CC)nc2cc(C(N)=O)cc(OCCCN(C)CCOC)c21 [Compound V, 3-[(E)-4-[5-carbamoyl-2-[(2-ethyl-5-methyl-pyrazole-3-carbonyl)amino]-7-[3-[2-methoxyethyl(methyl)amino]propoxy]benzimidazol-1-yl]but-2-enyl]-2-[(2-ethyl-5-methyl-pyrazole-3-carbonyl)amino]imidazo[4,5-b]pyridine-6-carboxamide] | 
> 500 nM | 1 to 500 nM | 1 to 500 nM | 1 to 500 nM | 1 to 500 nM | > 500 nM | CCn1nc(C)cc1C(=O)Nc1nc2cc(C(N)=O)ccc2n1C/C=C/Cn1c(NC(=O)c2cc(C)nn2CC)nc2cc(C(N)=O)sc21 [Compound M, 3-[(E)-4-[5-carbamoyl-2-[(2-ethyl-5-methyl-pyrazole-3-carbonyl)amino]benzimidazol-1-yl]but-2-enyl]-2-[(2-ethyl-5-methyl-pyrazole-3-carbonyl)amino]thieno[2,3-d]imidazole-5-carboxamide Tetrahydrochloride] | 
1 to 500 nM | 1 to 500 nM | 1 to 500 nM | 1 to 500 nM | 1 to 500 nM | 1 to 500 nM | CCn1nc(C)cc1C(=O)Nc1nc2cc(C(N)=O)cnc2n1C/C=C/Cn1c(NC(=O)c2cc(C)nn2CC)nc2cc(C(N)=O)cc(OCCCN(C)C)c21 [Compound P, 3-[(E)-4-[5-carbamoyl-7-[3-(dimethylamino)propoxy]-2-[(2-ethyl-5-methyl-pyrazole-3-carbonyl)amino]benzimidazol-1-yl]but-2-enyl]-2-[(2-ethyl-5-methyl-pyrazole-3-carbonyl)amino]imidazo[4,5-b]pyridine-6-carboxamide] | 
 | 1 to 500 nM |  |  | 1 to 500 nM |  | CCn1nc(C)cc1C(=O)Nc1nc2cc(C(N)=O)sc2n1C/C=C/Cn1c(NC(=O)c2cc(C)nn2CC)nc2cc(C(N)=O)cc(OCCCN(C)C)c21 [Compound O, 3-[(E)-4-[5-carbamoyl-7-[3-(dimethylamino)propoxy]-2-[(2-ethyl-5-methyl-pyrazole-3-carbonyl)amino]benzimidazol-1-yl]but-2-enyl]-2-[(2-ethyl-5-methyl-pyrazole-3-carbonyl)amino]thieno[2,3-d]imidazole-5-carboxamide] | 
 | 1 to 500 nM |  |  | 1 to 500 nM |  | CCn1nc(C)cc1C(=O)Nc1nc2cc(C(N)=O)sc2n1C/C=C/Cn1c(NC(=O)c2cc(C)nn2CC)nc2cc(C(N)=O)cc(OCCCNC)c21 [Compound Q, 3-[(E)-4-[5-carbamoyl-2-[(2-ethyl-5-methyl-pyrazole-3-carbonyl)amino]-7-[3-(methylamino)propoxy]benzimidazol-1-yl]but-2-enyl]-2-[(2-ethyl-5-methyl-pyrazole-3-carbonyl)amino]thieno[2,3-d]imidazole-5-carboxamide] | 

Structure (SMILES) | EC50 (hSTING-AQ) | EC50 (hSTING-wt) | EC50 (hSTING-Q) | EC50 (mSTING-wt; [1]) | EC50 (hSTING-H232) | EC50 (hSTING-HAQ) | EC50 (mSTING-wt)
CCn1nc(C)cc1C(=O)Nc1nc2cc(C(N)=O)cnc2n1C/C=C/Cn1c(NC(=O)c2cc(C)nn2CC)nc2cc(C(N)=O)cc(OCCCO)c21 [Compound R] | 1 to 500 nM | 1 to 500 nM | 1 to 500 nM |  | 1 to 500 nM | 1 to 500 nM | 1 to 500 nM
